Tests used:
QPCT (rhQPCT) = QPCT (rhQPCT) (Homo sapiens (Human), UniProt Q16769); assay: QPCT Enzymatic Activity Assay (coupled-enzyme fluorescent assay, H-Gln-AMC substrate); format: biochemical; conditions: rhQPCT 10-12 nM, 10 μM H-Gln-AMC; read-out: QPCT Inhibition IC50
Protocol: QPCT activity was measured in a coupled-enzyme assay using the QPCT substrate, glutamine-7-amido-4-methylcoumarin (H-Gln-AMC, Bachem), which is converted to pyroglutamyl-AMC by QPCT. Pyroglutamyl-AMC is then converted to the fluorescent molecule, AMC, by incubation with the human enzyme pyroglutamyl peptidase-1 (PGPEP-1). […] Following the incubation, H-Gln-AMC substrate was diluted in assay buffer and added to each well for a final concentration of 10 μM. The reaction was incubated for 60 min at 37° C., before stopping it by boiling at 100° C. for 5 minutes and cooling the plate at 4° C. for 3 minutes. […] Following incubation, the fluorescence was measured with a plate reader using excitation at 380 nm and emission at 460 nm. […] Concentration-response-curves and IC50 values (Table 17) were generated using Collaborative Drug Discovery software.

QPCTL = QPCTL (Homo sapiens (Human), UniProt Q9NXS2); assay: QPCTL Enzymatic Activity Assay (coupled-enzyme fluorescent assay, H-Gln-AMC substrate); format: biochemical; conditions: recombinant truncated human QPCTL 10-12 nM, 10 μM H-Gln-AMC; read-out: QPCTL Inhibition IC50
Sequence of QPCTL (Q9NXS2 53-382): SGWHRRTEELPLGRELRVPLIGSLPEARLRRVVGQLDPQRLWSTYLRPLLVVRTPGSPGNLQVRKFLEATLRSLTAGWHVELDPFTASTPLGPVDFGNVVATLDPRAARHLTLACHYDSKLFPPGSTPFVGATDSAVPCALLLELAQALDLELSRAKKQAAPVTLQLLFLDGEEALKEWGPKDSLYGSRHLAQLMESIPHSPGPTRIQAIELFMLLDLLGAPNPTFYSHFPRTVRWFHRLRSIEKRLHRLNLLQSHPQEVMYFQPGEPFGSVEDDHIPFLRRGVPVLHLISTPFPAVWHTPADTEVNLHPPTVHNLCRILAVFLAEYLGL
Protocol: Protein expression was induced when the bacterial culture OD600 was approximately 0.7 using 1 mM IPTG and the cells incubated at 20° C. for approximately 16 hours. The QPCTL was purified using nickel column purification, digested by TEV, followed by a second nickel column purification. The protein was further purified by size-exclusion chromatography using a Superdex™ 75 column. The final protein was concentrated using ultrafiltration tubes at a molecular weight cutoff of 10 kilodaltons and stored frozen in protein buffer (25 mM Tris pH 8.3, 150 mM NaCl).
QPCTL activity was measured in a coupled-enzyme assay using the QPCTL substrate, glutamine-7-amido-4-methylcoumarin (H-Gln-AMC, Bachem), which is converted to pyroglutamyl-AMC by QPCTL. Pyroglutamyl-AMC is then converted to the fluorescent molecule, AMC, by incubation with the human enzyme pyroglutamyl peptidase-1. […] Final concentrations of DMSO and test compounds were 2% and 30-100 μM, respectively. Following the incubation, H-Gln-AMC substrate was diluted in assay buffer and added to each well for a final concentration of 10 μM. The reaction was incubated for 60 min at 37° C., before stopping it by boiling at 100° C. for 5 minutes and cooling the plate at 4° C. for 3 minutes. […] Following incubation, the fluorescence was measured with a plate reader using excitation at 380 nm and emission at 460 nm. […] Concentration-response-curves and IC50 values (Table 17) were generated using curve fit software.

Sequence of QPCT (rhQPCT) (Q16769 29-361): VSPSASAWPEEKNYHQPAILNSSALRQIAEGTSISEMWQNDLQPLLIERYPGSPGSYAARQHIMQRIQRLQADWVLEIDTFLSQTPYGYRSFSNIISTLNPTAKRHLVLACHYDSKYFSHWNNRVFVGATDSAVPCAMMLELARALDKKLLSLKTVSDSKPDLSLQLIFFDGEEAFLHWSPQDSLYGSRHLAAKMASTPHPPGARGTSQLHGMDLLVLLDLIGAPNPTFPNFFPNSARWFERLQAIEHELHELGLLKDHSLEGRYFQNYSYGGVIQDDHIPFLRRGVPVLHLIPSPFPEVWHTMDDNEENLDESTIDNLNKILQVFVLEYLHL

Compound	IC50 (QPCT (rhQPCT)) [nM]	IC50 (QPCTL) [nM]
Cn1ccc(-c2cc(F)c(-c3ccc(F)nc3)c(N3CCC(c4nncn4C)CC3)c2C#N)n1 [Example 131, 4-fluoro-3-(6-fluoropyridin-3-yl)-6-(1-methyl-1H-pyrazol-3-yl)-2-(4-(4-methyl-4H-1,2,4-triazol-3-yl)piperidin-1-yl)benzonitrile]	100 to 1000	1000 to 10000
6′-fluoro-3-(4-(1-methyl-1H-imidazol-5-yl)piperidin-1-yl)-[2,3′-bipyridine]-4-carbonitrile [Example 134]	< 100	< 100
COc1cnc(-c2ccc(F)nc2)c(N2CCC(c3nncn3C)CC2)c1C#N [Example 137, 6′-fluoro-5-methoxy-3-(4-(4-methyl-4H-1,2,4-triazol-3-yl)piperidin-1-yl)-[2,3′-bipyridine]-4-carbonitrile]	100 to 1000	1000 to 10000
N#Cc1cccc(-c2ccc(F)nc2)c1N1CCC(c2nncs2)CC1 [Example 72, 2-(4-(1,3,4-thiadiazol-2-yl)piperidin-1-yl)-3-(6-fluoropyridin-3-yl)benzonitrile]	100 to 1000	100 to 1000
Cc1cc(-c2ccc(-c3ccn(C)n3)c(C#N)c2N2CCC(c3nncn3C)CC2)cnn1 [Example 61, 6-(1-methyl-1H-pyrazol-3-yl)-2-(4-(4-methyl-4H-1,2,4-triazol-3-yl)piperidin-1-yl)-3-(6-methylpyridazin-4-yl)benzonitrile]	< 100	< 100
CN1CCOc2c(-c3cccc(C#N)c3N3CCC(c4nncn4C)CC3)cncc21 [Example 22, 3-{4-methyl-2H,3H,4H-pyrido[4,3-b][1,4]oxazin-8-yl}-2-[4-(4-methyl-4H-1,2,4-triazol-3-yl)piperidin-1-yl]benzonitrile]	100 to 1000	100 to 1000
Cn1cnnc1C1CCN(c2c(C#N)cccc2-c2cnccc2O)CC1 [Example 7, 3-(4-hydroxypyridin-3-yl)-2-[4-(4-methyl-4H-1,2,4-triazol-3-yl)piperidin-1-yl]benzonitrile]	1000 to 10000	1000 to 10000
Cn1cnnc1C1CCN(c2c(C#N)cccc2-c2cncc(OS(=O)(=O)F)c2)CC1 [Example 118, 5-(3-cyano-2-(4-(4-methyl-4H-1,2,4-triazol-3-yl)piperidin-1-yl)phenyl)pyridin-3-yl sulfurofluoridate]	< 100	< 100
Cn1ccc(-c2ccc(-c3cncc(B(O)O)c3)c(N3CCC(c4nncn4C)CC3)c2C#N)n1 [Example 126, (5-(3-cyano-4-(1-methyl-1H-pyrazol-3-yl)-2-(4-(4-methyl-4H-1,2,4-triazol-3-yl)piperidin-1-yl)phenyl)pyridin-3-yl)boronic acid]	< 100	< 100
Cn1cnnc1C1CCN(c2c(C#N)cccc2-c2ccc(OS(=O)(=O)F)nc2)CC1 [Example 119, 5-(3-cyano-2-(4-(4-methyl-4H-1,2,4-triazol-3-yl)piperidin-1-yl)phenyl)pyridin-2-yl sulfurofluoridate]	100 to 1000	< 100
Cn1ncc(-c2cccc(C#N)c2N2CCC(c3nncn3C)CC2)n1 [Example 99, 3-(2-methyl-2H-1,2,3-triazol-4-yl)-2-(4-(4-methyl-4H-1,2,4-triazol-3-yl)piperidin-1-yl)benzonitrile]	< 100	100 to 1000
Cn1cnnc1C1[C@H]2CN(c3c(C#N)cccc3-c3ccc(F)nc3)C[C@@H]12 (stereo partly drawn) [Example 75, 3-(6-fluoropyridin-3-yl)-2-((1R,5S)-6-(4-methyl-4H-1,2,4-triazol-3-yl)-3-azabicyclo[3.1.0]hexan-3-yl)benzonitrile]	100 to 1000	100 to 1000
Cn1cnnc1C1CCN(c2c(C#N)cccc2-c2cncc3c2OCCN3CCO)CC1 [Example 23, 3-[4-(2-hydroxyethyl)-2H,3H,4H-pyrido[4,3-b][1,4]oxazin-8-yl]-2-[4-(4-methyl-4H-1,2,4-triazol-3-yl)piperidin-1-yl]benzonitrile]	100 to 1000	100 to 1000
Cn1cnnc1C1CCN(c2c(C#N)cccc2-c2ccc3[nH]nc(O)c3c2)CC1 [Example 113, 3-(3-hydroxy-1H-indazol-5-yl)-2-(4-(4-methyl-4H-1,2,4-triazol-3-yl)piperidin-1-yl)benzonitrile]	< 100	< 100

The next lines start with the values.

IC50 (QPCT (rhQPCT)) [nM]	IC50 (QPCTL) [nM]	Compound
< 100	< 100	CN(C)CCOc1ccc(-c2ccnnc2)c(N2CCC(c3nncn3C)CC2)c1C#N [Example 58, 6-(2-(dimethylamino)ethoxy)-2-(4-(4-methyl-4H-1,2,4-triazol-3-yl)piperidin-1-yl)-3-(pyridazin-4-yl)benzonitrile]
100 to 1000	100 to 1000	COc1ccncc1-c1cccc(C#N)c1N1CCC(c2cnc(N)s2)CC1 [Example 17, 2-[4-(2-amino-1,3-thiazol-5-yl)piperidin-1-yl]-3-(4-methoxypyridin-3-yl)benzonitrile]
< 100	< 100	COc1ccncc1-c1cccc(C#N)c1N1CCC(c2cncn2C)CC1 [Example 31, 3-(4-methoxypyridin-3-yl)-2-[4-(1-methyl-1H-imidazol-5-yl)piperidin-1-yl]benzonitrile]
< 100	< 100	Cn1cnnc1N1CCN(c2c(C#N)ccc(F)c2-c2ccc(F)nc2)CC1 [Example 127, 4-fluoro-3-(6-fluoropyridin-3-yl)-2-(4-(4-methyl-4H-1,2,4-triazol-3-yl)piperazin-1-yl)benzonitrile]
< 100	< 100	Cn1cnnc1C1CCN(c2c(C#N)cccc2-c2cnnc(O)c2)CC1 [Example 52, 3-(6-hydroxypyridazin-4-yl)-2-(4-(4-methyl-4H-1,2,4-triazol-3-yl)piperidin-1-yl)benzonitrile]
100 to 1000	100 to 1000	Cc1cc(-c2c(F)ccc(C#N)c2N2CCC(c3nncn3C)CC2)cnn1 [Example 59, 4-fluoro-2-(4-(4-methyl-4H-1,2,4-triazol-3-yl)piperidin-1-yl)-3-(6-methylpyridazin-4-yl)benzonitrile]
< 100	< 100	[2H]C([2H])([2H])Oc1ccc(-c2ccc(F)nc2)c(N2CCC(c3nncn3C)CC2)c1C#N [Example 57, 3-(6-fluoropyridin-3-yl)-6-(methoxy-d3)-2-(4-(4-methyl-4H-1,2,4-triazol-3-yl)piperidin-1-yl)benzonitrile]
100 to 1000	100 to 1000	Cn1cnnc1C1CCN(c2c(C#N)cccc2-c2cnnn2C)CC1 [Example 104, 3-(1-methyl-1H-1,2,3-triazol-5-yl)-2-(4-(4-methyl-4H-1,2,4-triazol-3-yl)piperidin-1-yl)benzonitrile]
< 100	< 100	Cn1cnnc1N1CCN(c2c(-c3ccc(F)nc3)ccc(C3CC3)c2C#N)CC1 [Example 129, 6-cyclopropyl-3-(6-fluoropyridin-3-yl)-2-(4-(4-methyl-4H-1,2,4-triazol-3-yl)piperazin-1-yl)benzonitrile]
100 to 1000	> 10000	Cn1cc(-c2cnc(-c3ccc(F)nc3)c(N3CCC(c4nncn4C)CC3)c2C#N)cn1 [Example 139, 6′-fluoro-5-(1-methyl-1H-pyrazol-4-yl)-3-(4-(4-methyl-4H-1,2,4-triazol-3-yl)piperidin-1-yl)-[2,3′-bipyridine]-4-carbonitrile]
100 to 1000	100 to 1000	Cn1cnnc1C1CCN(c2c(C#N)cccc2-c2cnccn2)CC1 [Example 5, 2-[4-(4-methyl-4H-1,2,4-triazol-3-yl)piperidin-1-yl]-3-(pyrazin-2-yl)benzonitrile]

Reference: patent US20240101544A1, “INHIBITORS OF QPCTL AND QPCT” (priority 2022, published 2024)
